Laboratory results as given in publication PMC3087488 (Journal of Oncology, 2011).
Marks after values point to notes of the source that are not given here.

Assay: adverse events in patients (CTCAE version 3.0)
Format: in vivo, human
Details: for Any motesanib-related AE, Grade 5 / Motesanib-related AE: Anorexia / Motesanib-related AE: Constipation / Motesanib-related AE: Deep vein thrombosis / Motesanib-related AE: Dehydration / Motesanib-related AE: Dermatitis acneiform / Motesanib-related AE: Diarrhea / Motesanib-related AE: Erythema / Motesanib-related AE: Fatigue / Motesanib-related AE: Hypertension / Motesanib-related AE: Nausea / Motesanib-related AE: Pulmonary embolism / Motesanib-related AE: Rash / Motesanib-related AE: Vomiting / Motesanib-related Arterial thromboembolic events (all grades) / Motesanib-related Arterial thrombosis, Grade 3 / Motesanib-related Arterial thrombosis, Grade 4 / Motesanib-related Cerebrovascular accident, Grade 2 / Motesanib-related Deep vein thrombosis, Grade 2 / Motesanib-related Deep vein thrombosis, Grade 3 / Motesanib-related Gallbladder disorder, Grade 1 / Motesanib-related Hemorrhagic events, Grade 1 / Motesanib-related Jugular vein thrombosis, Grade 2 / Motesanib-related Neutropenia, Grade 3 / Motesanib-related Pulmonary embolism, Grade 4 / Motesanib-related Pulmonary embolism, Grade 5 / Motesanib-related Venous thromboembolic events (all grades) / Patients with any motesanib-related AE / Any motesanib-related AE, Grade 3 / Any motesanib-related AE, Grade 4: gemcitabine/cisplatin
Procedure: Adverse events were recorded throughout the study and graded (including DLTs) according to the Common Terminology Criteria for Adverse Events, version 3.0. Samples for assessment of hematology, blood chemistry, urinalysis, and thyroid function were collected on day 1 of each cycle.

[1] = motesanib 75 mg QD (n = 6) + panitumumab
[2] = motesanib 100 mg QD (n = 6) + panitumumab
[3] = motesanib 125 mg QD (n = 11) + panitumumab

CC1(C)CNc2cc(NC(=O)c3cccnc3NCc3ccncc3)ccc21 [motesanib]
6 (100) n (%): Patients with any motesanib-related AE [1]
1 (17)^b n (%): Motesanib-related Deep vein thrombosis, Grade 3 [2]
11 (100) n (%): Patients with any motesanib-related AE [3]
1 (9)^a n (%): Any motesanib-related AE, Grade 5 (motesanib 125 mg QD (n = 11) + panitumumab, sudden death)
1 (17) n (%): Motesanib-related AE: Dehydration [1] | Motesanib-related AE: Diarrhea [1] | Motesanib-related AE: Rash [1] | Motesanib-related Gallbladder disorder, Grade 1 [1] | Motesanib-related Jugular vein thrombosis, Grade 2 [1] | Any motesanib-related AE, Grade 3 [2] | Motesanib-related AE: Deep vein thrombosis [2] | Motesanib-related AE: Erythema [2] | Motesanib-related AE: Vomiting [2] | Motesanib-related Hemorrhagic events, Grade 1 [2]
Two: deaths considered related to motesanib and panitumumab (pulmonary embolism, 50 mg QD, and sudden death, 125 mg QD, within 30 days of treatment)
1 (9) n (%): Motesanib-related Arterial thromboembolic events (all grades) [3] | Motesanib-related Arterial thrombosis, Grade 3 [3]
8 patients: grade 4 pulmonary embolism (treatment regimen as a whole)
29 patients: patients with motesanib-related adverse events (of the 33 patients who received motesanib (88%))
3 (27)^c n (%): Motesanib-related Pulmonary embolism, Grade 4 [3]
not tolerable: tolerability of the combination treatment (motesanib, panitumumab, and gemcitabine/cisplatin at the doses and schedule administered)
6 (55) n (%): Any motesanib-related AE, Grade 3 [3] | Motesanib-related AE: Fatigue [3]
4 (67) n (%): Motesanib-related AE: Hypertension [1] | Patients with any motesanib-related AE [2]
7 (64) n (%): Motesanib-related AE: Diarrhea [3]
2 (33)^b n (%): Motesanib-related Pulmonary embolism, Grade 4 [2]
0 (0) n (%): Any motesanib-related AE, Grade 5 [1] | Motesanib-related AE: Anorexia [1] | Motesanib-related AE: Deep vein thrombosis [1] | Motesanib-related Arterial thromboembolic events (all grades) [1] | Motesanib-related Arterial thrombosis, Grade 3 [1] | Motesanib-related Arterial thrombosis, Grade 4 [1] | Motesanib-related Cerebrovascular accident, Grade 2 [1] | Motesanib-related Deep vein thrombosis, Grade 2 [1] | Motesanib-related Deep vein thrombosis, Grade 3 [1] | Motesanib-related Hemorrhagic events, Grade 1 [1] | Motesanib-related Neutropenia, Grade 3 [1] | Motesanib-related Pulmonary embolism, Grade 5 [1] | Any motesanib-related AE, Grade 5 [2] | Motesanib-related AE: Constipation [2] | Motesanib-related AE: Dehydration [2] | Motesanib-related AE: Dermatitis acneiform [2] | Motesanib-related AE: Diarrhea [2] | Motesanib-related AE: Rash [2] | Motesanib-related Arterial thromboembolic events (all grades) [2] | Motesanib-related Arterial thrombosis, Grade 3 [2] | Motesanib-related Arterial thrombosis, Grade 4 [2] | Motesanib-related Cerebrovascular accident, Grade 2 [2] | Motesanib-related Deep vein thrombosis, Grade 2 [2] | Motesanib-related Gallbladder disorder, Grade 1 [2] | Motesanib-related Jugular vein thrombosis, Grade 2 [2] | Motesanib-related Neutropenia, Grade 3 [2] | Motesanib-related Pulmonary embolism, Grade 5 [2] | Motesanib-related AE: Erythema [3] | Motesanib-related Arterial thrombosis, Grade 4 [3] | Motesanib-related Cerebrovascular accident, Grade 2 [3] | Motesanib-related Deep vein thrombosis, Grade 2 [3] | Motesanib-related Gallbladder disorder, Grade 1 [3] | Motesanib-related Jugular vein thrombosis, Grade 2 [3] | Motesanib-related Neutropenia, Grade 3 [3] | Motesanib-related Pulmonary embolism, Grade 5 [3]
5 (45) n (%): Motesanib-related AE: Hypertension [3]
2 (33) n (%): Motesanib-related AE: Constipation [1] | Motesanib-related AE: Dermatitis acneiform [1] | Motesanib-related AE: Erythema [1] | Motesanib-related AE: Fatigue [1] | Motesanib-related AE: Pulmonary embolism [1] | Motesanib-related Pulmonary embolism, Grade 4 [1] | Any motesanib-related AE, Grade 4 [2] | Motesanib-related AE: Anorexia [2] | Motesanib-related AE: Fatigue [2] | Motesanib-related AE: Hypertension [2] | Motesanib-related AE: Nausea [2] | Motesanib-related AE: Pulmonary embolism [2] | Motesanib-related Venous thromboembolic events (all grades) [2]
2 (18)^c n (%): Motesanib-related Deep vein thrombosis, Grade 3 [3]
2 patients: grade 3/4 arterial thrombosis (treatment regimen as a whole)
2 (18) n (%): Motesanib-related AE: Constipation [3] | Motesanib-related AE: Deep vein thrombosis [3] | Motesanib-related AE: Dermatitis acneiform [3] | Motesanib-related AE: Rash [3] | Motesanib-related AE: Vomiting [3]
3 (27) n (%): Any motesanib-related AE, Grade 4 [3] | Motesanib-related AE: Dehydration [3] | Motesanib-related AE: Pulmonary embolism [3] | Motesanib-related Hemorrhagic events, Grade 1 [3] | Motesanib-related Venous thromboembolic events (all grades) [3]
4 (36) n (%): Motesanib-related AE: Anorexia [3] | Motesanib-related AE: Nausea [3]
5 (83) n (%): Motesanib-related AE: Nausea [1]
3 (50) n (%): Motesanib-related AE: Vomiting [1] | Motesanib-related Venous thromboembolic events (all grades) [1]
3 patients: grade 3 deep vein thrombosis (treatment regimen as a whole)
